≈ marks a conversion by molar mass, not a printed value. Where “and” joins values, the source holds several entries; their conditions need not be identical. Equal entries are not always repeated. Where two headings read alike, the source gives them in different places. Values belong to the compound of their own block, whether it stands above or below them.
How the values were obtained:
[1] = test system: L. donovani infantum promastigotes; assay: In vitro activity against Leishmania promastigotes (infantum); format: cell-based; set-up: CP100: unit not given here; conditions: for IC50: Leishmania donovani, mean inhibitory concentration, read-out: CI50 (the source's name); for CP100: minimal parasiticidal concentration
Description: (§1) Mean inhibitory concentrations (Cl50%) against L. mexicana amazonensis, L. donovani infantum and L. braziliensis braziliensis promastigotes were determined according to the method described by Bodley A L et al (J Infect Dis 1995; 172(4):1157-9.). Minimal parasiticidal concentrations (CP100, minimal concentrations capable of abolishing the motility of all parasites in the culture) were also determined. Amphotericin B and Glucantime® were tested as reference drugs.

[2] = test system: L. mexicana amazonensis promastigotes; assay: In vitro activity against Leishmania promastigotes (amazonensis); format: cell-based; set-up: CP100: unit not given here; conditions: for IC50: Leishmania mexicana, mean inhibitory concentration, read-out: CI50 (the source's name); for CP100: minimal parasiticidal concentration abolishing motility of all parasites
Description: as §1

[3] = test system: L. braziliensis braziliensis promastigotes; assay: In vitro activity against Leishmania promastigotes (braziliensis); format: cell-based; set-up: CP100: unit not given here; conditions: for IC50: Leishmania braziliensis, mean inhibitory concentration, read-out: CI50 (the source's name); for CP100: minimal parasiticidal concentration
Description: as §1

[4] = test system: trypomastigotes of T. cruzi; assay: In vitro activity against Trypanosoma cruzi; format: cell-based; conditions: for IC50: Trypanosoma cruzi, T. cruzi trypomastigotes grown in rat myoblast cell line, read-out: CI50 (the source's name); for CP100: minimal concentration that immobilizes all parasites
Description: The in vitro activity of the β-nitrovinylfuran derivatives was tested against trypomastigotes of T. cruzi grown in a rat myoblast cell line. Minimal parasiticidal concentrations (minimal concentration that immobilizes all the parasites in the culture) and mean inhibitory concentrations (concentration that reduces the number of parasites to 50% of those found in the un-treated control cultures) were determined according to Buckner's method (Antimicrob Agents Chemother 1996; 40(11):2592-7).

[5] = Toxicological studies (LD50, LD0, MTD), intraperitoneal; format: in vivo, female Balb/c mice; conditions: for MTD at 14 days: female, Balb/c; for LD0: maximal non-lethal dose calculated from dose-mortality curves, single i.p. injection; for LD50: single intraperitoneal injection, female Balb/c mice
Description: The same animal model used for in vivo anti-leishmanial tests was used to perform comparative toxicological studies of the β-nitrovinylfuran derivatives. The main excipient of the compositions used with this purpose was the sunflower oil. The mean lethal doses (LD50) of each β-nitrovinylfuran derivative and Amphotericin B were estimated in female Balb/c mice (18-20g body weight), treated by a single intraperitoneal injection. The maximal non-lethal doses (LD0) were calculated from the dose-mortality curves. The maximal tolerated doses (MTD, maximal dose causing neither mortality nor body weight losses over 10% respect to the initial weight) by repeated intraperitoneal administration every 12 or 24 h during 14 days were determined as well.

Leishmania promastigotes = assay: In vitro activity against Leishmania promastigotes (three species); format: cell-based
Description: as §1

L. m. amazonensis [6] = assay: Experimental cutaneous leishmaniosis, chronic lesions treated every 12 h; format: in vivo, Balb/c mice; conditions: for effectiveness on chronic lesions: first week, F 50 mg/Kg twice a day, Amphotericin B 5 mg/Kg every other day; for lesion size: by the end of treatment (14 days)
Description: Mice developed chronic leishmanial lesions at eighteen weeks post-infection. Lesions were ulcerated and covered with a thick crust. The average dorso-plantar diameter of the infected foot was 1.23±0.24 cm and the lateral diameter was 1.24±0.19 cm. At that stage the treatment started twice a day with either 2-bromo-5-(2-bromo-2-nitrovinyl)-furan at 2 mg/Kg; 2-bromo-5-(2-methyl-2-nitrovinyl)-furan at 50 mg/Kg or Amphotericin B at 5 mg/Kg every other day. A control group formed by infected non-treated mice was also included in the experiment. All drugs were administered by intraperitoneal route for 14 days. […] Amphotericin B was not effective, since neither the dorso-plantar nor the lateral diameters differed statistically from the lesions of the control group (P>0.05).

L. m. amazonensis [7] = assay: Experimental cutaneous leishmaniosis, early stage lesions treated every 24 h; format: in vivo, Balb/c mice; conditions: for lesion evolution versus controls: during and after 14 days treatment, Amphotericin B 1 mg/Kg; for lesion evolution versus controls / lesion growth: D 5 mg/Kg; for lesion growth: i.p. daily, F 50 mg/Kg
Description: (§2) Balb/c mice were experimentally infected with L. m. amazonensis promastigotes by intradermal injection in the footpads and six weeks later they were treated with the test compounds by intraperitoneal route. The product 2-bromo-5-(2-bromo-2-nitrovinyl)-furan was administered at a dose of 5 mg/Kg; the 2-bromo-5-(2-methyl-2-nitrovinyl)-furan, at 50 mg/Kg and Amphotericin B, at 1 mg/Kg. Animals were daily dosed for 14 days. Miglyol 810, the vehicle used for the β-nitrovinylfuran derivatives, was similarly administered to a group of mice.

cutaneous leishmaniosis = assay: Treatment of human cutaneous leishmaniosis, topical ointment; format: in vivo; conditions: oily ointment 0.15%, topical once a day, 21 days
Description: One hundred patients with parasitological diagnose of cutaneous leishmaniosis were treated. Patients were topically treated, once a day, for 21 days with an oily ointment containing 0.15% 2-bromo-5-(2-bromo-2-nitrovinyl)-furan as active ingredient and petrolatum as the main excipient.

L. m. amazonensis [8] = assay: Experimental cutaneous leishmaniosis, early stage lesions treated every 12 h; format: in vivo, Balb/c mice; conditions: for activity compared with Amphotericin B / lesion growth rate: i.p. every 12 h; for lesion growth rate: D 2 mg/Kg, F 100 mg/Kg
Description: as §2
The experiment was essentially carried out in a similar way as the one described above. However, 2-bromo-5-(2-bromo-2-nitrovinyl,-furan was administered at a dose of 2 mg/Kg and 2-bromo-5-(2-methyl-2-nitrovinyl)-furan at 100 mg/Kg. Treatments were administered by intraperitoneal route, but every 12 h instead of 24 h.

[9] = mouse, in vivo, ip, repeated intraperitoneal administration every 24 h during 14 days, read-out: MTD (every 24 h)
[10] = mouse, in vivo, ip, read-out: LD50

Compound: O=[N+]([O-])C=Cc1ccco1 [A, 2-(2-nitrovinyl)-furan]
- IC50 [1]: 0.35 µg/mL (≈ 2.52 µM)
- CP100 [1]: 1.75
- IC50 [2]: 0.66 µg/mL (≈ 4.74 µM)
- CP100 [2]: 1.12
- IC50 [3]: 0.2 µg/mL (≈ 1.44 µM)
- CP100 [3]: 1.29
- IC50 [4]: 1.8 µg/mL and 12.6 µM
- CP100 [4]: 10.0 μg/mL and 71.9 μM
- MTD at 14 days [5, 9]: 55 mg/kg
- LD0 [5]: 50 mg/kg
- LD50 [5, 10]: 68 mg/kg

Compound: C[C@@H]1[C@H](O)[C@@H](C)/C=C/C=C/C=C/C=C/C=C/C=C/C=C/[C@H](O[C@@H]2O[C@H](C)[C@@H](O)[C@H](N)[C@@H]2O)C[C@@H]2O[C@](O)(C[C@@H](O)C[C@@H](O)[C@H](O)CC[C@@H](O)C[C@@H](O)CC(=O)O[C@H]1C)C[C@H](O)[C@H]2C(=O)O [Amphotericin B, reference compound]
- CP100 [1]: 0.016
- CP100 [2]: 0.051
- CP100 [3]: 0.028
- LD0 [5]: 15 mg/kg
- LD50 [5]: 22 mg/kg
- activity relative to the β-nitrovinylfuran derivatives (Leishmania promastigotes): more active than the β-nitrovinylfuran derivatives
- dorso-plantar diameter versus control (L. m. amazonensis [6]; by the end of treatment): incremented their lesion dorso-plantar diameters as controls
- lateral diameter versus control (L. m. amazonensis [6]; by the end of treatment): the change was not different
- effectiveness on chronic lesions (L. m. amazonensis [6]): not effective
- lesion evolution versus controls (L. m. amazonensis [7]): evolved similarly to controls
- lesion growth rate after discontinuation (L. m. amazonensis [7]; first week after discontinuation of treatment, 1 mg/Kg): remarkable decrease of lesion growth rate

Compound: O=[N+]([O-])C=Cc1ccc(Br)o1 [B, 2-bromo-5-(2-nitrovinyl)-furan]
- IC50 [1]: 0.23 µg/mL (≈ 1.06 µM)
- CP100 [1]: 0.51
- IC50 [2]: 0.45 µg/mL (≈ 2.06 µM)
- CP100 [2]: 2.08
- IC50 [3]: 0.18 µg/mL (≈ 0.826 µM)
- CP100 [3]: 0.61
- IC50 [4]: 1.2 µg/mL and 5.7 µM
- CP100 [4]: 3.3 μg/mL and 15.3 μM
- MTD at 14 days [5, 9]: 20 mg/kg
- LD0 [5]: 45 mg/kg
- LD50 [5, 10]: 73 mg/kg

- IC50 [4]: 0.9 µg/mL and 3.3 µM
Compound: O=C(Cn1ccnc1[N+](=O)[O-])NCc1ccccc1 [Benznidazole, reference compound]
- CP100 [4]: >40 μg/mL and >154 μM

Compound: O=[N+]([O-])C(Br)=Cc1ccco1 [Compound C, 2-(2-bromo-2-nitrovinyl)-furan]
- IC50 [1]: 0.36 µg/mL (≈ 1.65 µM)
- CP100 [1]: 2.01
- IC50 [2]: 0.63 µg/mL (≈ 2.89 µM)
- CP100 [2]: 1.77
- IC50 [3]: 0.25 µg/mL (≈ 1.15 µM)
- CP100 [3]: 1.25
- IC50 [4]: 3.7 µg/mL and 16.9 µM
- CP100 [4]: 10.0 μg/mL and 45.9 μM
- LD0 [5]: 35 mg/kg
- LD50 [5, 10]: 51 mg/kg

Compound: O=[N+]([O-])C(Br)=Cc1ccc(Br)o1 [D, 2-bromo-5-(2-bromo-2-nitrovinyl)-furan]
- IC50 [1]: 0.35 µg/mL (≈ 1.18 µM)
- CP100 [1]: 0.86
- IC50 [2]: 0.25 µg/mL (≈ 0.842 µM)
- CP100 [2]: 1.53
- IC50 [3]: 0.26 µg/mL (≈ 0.876 µM)
- CP100 [3]: 0.49
- side effects (cutaneous leishmaniosis): did not evidence any side effect that impeded the continuation of therapy
- patients with total cure of the cutaneous lesions (cutaneous leishmaniosis; one hundred patients): 90%
- IC50 [4]: 4.1 µg/mL and 13.9 µM
- CP100 [4]: 10.0 μg/mL and 33.7 μM
- MTD at 14 days ([5]; mouse, in vivo, ip, repeated intraperitoneal administration every 12 h during 14 days, read-out: MTD (every 12 h)): 2 to 3 mg/kg
- MTD at 14 days [5, 9]: 5 mg/kg
- LD0 [5]: 15 mg/kg
- LD50 [5, 10]: 24 mg/kg
- dorso-plantar diameter versus control (L. m. amazonensis [6]; by the end of treatment): significantly different
- lesion size (L. m. amazonensis [6]): decrease of lesion size
- dorso-plantar diameter of the infected foot (L. m. amazonensis [6]; first week of treatment, P<0.05 vs control): decrease of the dorso-plantar diameter
- lateral diameter of the lesions (L. m. amazonensis [6]; first week of treatment, P>0.05): comparable to the diameter of control mice
- lesion evolution versus controls (L. m. amazonensis [7]): remained for two other weeks after treatment had finished
- lesion growth (L. m. amazonensis [7]; first week of treatment): minimal lesion growth
- lesion size (L. m. amazonensis [8]; first week of treatment, 2 mg/Kg i.p. every 12 h, P<0.001 vs control): decreased during the first week of treatment
- activity compared with Amphotericin B (L. m. amazonensis [8]): higher activity than Amphotericin B
- lesion growth rate (L. m. amazonensis [8]): significantly lower compared to controls
- lesion size (L. m. amazonensis [8]; seven days after finishing treatment, P<0.05): smaller than those of controls

Compound: CC(=Cc1ccco1)[N+](=O)[O-] [E, 2-(2-methyl-2-nitrovinyl)-furan]
- IC50 [1]: 0.31 µg/mL (≈ 2.02 µM)
- CP100 [1]: 1.27
- IC50 [2]: 0.34 µg/mL (≈ 2.22 µM)
- CP100 [2]: 3.49
- IC50 [3]: 0.35 µg/mL (≈ 2.29 µM)
- CP100 [3]: 4.84
- IC50 [4]: 4.7 µg/mL and 31 µM
- CP100 [4]: 30.0 μg/mL and 196.1 μM
- MTD at 14 days [5, 9]: 60 mg/kg
- LD0 [5]: 65 mg/kg
- LD50 [5, 10]: 80 mg/kg

Compound: CC(=Cc1ccc(Br)o1)[N+](=O)[O-] [F, 2-bromo-5-(2-methyl-2-nitrovinyl)-furan]
- IC50 [1]: 0.2 µg/mL (≈ 0.862 µM)
- CP100 [1]: 0.62
- IC50 [2]: 0.2 µg/mL (≈ 0.862 µM)
- CP100 [2]: 1.42
- IC50 [3]: 0.24 µg/mL (≈ 1.03 µM)
- CP100 [3]: 1.32
- IC50 [4]: 5.3 µg/mL and 23 µM
- CP100 [4]: 30.0 μg/mL and 129.3 μM
- MTD at 14 days [5, 9]: 100 mg/kg
- LD0 [5]: 200 mg/kg
- LD50 [5, 10]: 246 mg/kg
- lesion size (L. m. amazonensis [6]): ineffective
- effectiveness on chronic lesions (L. m. amazonensis [6]): did not prove to be effective
- lesion size change (L. m. amazonensis [7]; first week of treatment, 50 mg/Kg i.p. daily): small decrease in lesion size
- lesion growth (L. m. amazonensis [7]; first week of treatment): minimal lesion growth
- activity compared with Amphotericin B (L. m. amazonensis [8]): higher activity than Amphotericin B
- lesion growth rate (L. m. amazonensis [8]): significantly lower compared to controls

Compound: meglumine antimoniate [Glucantime ®, reference compound]
- CP100 [1]: >4250
- CP100 [2]: >4250
- CP100 [3]: >4250
- activity relative to the β-nitrovinylfuran derivatives (Leishmania promastigotes): significantly less active
